For this assay, the target named is T1, glucocerebrosidase (Gcase) (Homo sapiens, UniProt P04062).
T1 construct: micellar solution containing 10 nM GCase and 100 nM saposin C
T1 sequence (P04062 40-536): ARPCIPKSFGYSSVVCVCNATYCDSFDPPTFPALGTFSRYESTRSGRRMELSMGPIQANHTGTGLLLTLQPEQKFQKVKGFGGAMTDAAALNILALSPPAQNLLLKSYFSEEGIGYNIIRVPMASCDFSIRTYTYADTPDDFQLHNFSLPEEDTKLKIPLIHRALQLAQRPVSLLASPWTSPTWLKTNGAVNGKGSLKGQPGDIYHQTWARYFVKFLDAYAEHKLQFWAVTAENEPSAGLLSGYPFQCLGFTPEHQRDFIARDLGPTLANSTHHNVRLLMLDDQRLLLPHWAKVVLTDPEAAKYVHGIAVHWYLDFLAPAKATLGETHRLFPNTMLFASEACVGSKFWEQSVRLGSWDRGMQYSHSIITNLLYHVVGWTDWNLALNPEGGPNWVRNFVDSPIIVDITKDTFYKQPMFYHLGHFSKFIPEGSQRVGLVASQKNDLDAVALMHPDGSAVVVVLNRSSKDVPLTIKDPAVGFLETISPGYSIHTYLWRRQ
Nature of the assay: Glucocerebrosidase (Gcase) activation assay with 4-methylumbelliferyl-beta-D-glucopyranoside substrate, saposin C and phosphatidylserine/triton micelles, fluorescence readout. The assay is classed as biochemical. Particulars: for Percent Gcase Activation, 0.1 μM Test Compound: test compound at 0.1 μM; for Percent Gcase Activation, 1 μM Test Compound: test compound at 1.0 μM. A digest of the protocol: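 10 nM GCase with 100 nM saposin C pre-incubated 30 min with compound in pH 4.7 phosphate/citrate PS/triton micelles, then mixed 1:1 with 2 mM 4-methylumbelliferyl-β-glucoside micellar substrate (stock level). Run 15 min at room temperature, stopped at pH 12.5; fluorescence 365/440 nm. Screened at 1.0 and 0.1 μM; 8-point curves from 5 μM.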

For `Cc1cc(-c2ccns2)nc2c(C(=O)NC(C)C(F)(F)F)cnn12` (centres unmarked) [III-178], the “Percent Gcase Activation, 0.1 μM Test Compound” value is recorded as “** (Gcase activation in the range of 10% up to 20%)” and the “Percent Gcase Activation, 1 μM Test Compound” value is listed as “+++ (Gcase activation greater than 60%)”.
On the same counts, the results for `Cc1cc(N2CCCC(F)(F)C2)nc2c(C(=O)NC(C)C(F)(F)F)cnn12` (centres unmarked) [III-179] are “*** (greater than 20% Gcase activation)” and “+++ (Gcase activation greater than 60%)”.
In the same order, the values of `Cc1cc(N2CCC(F)(F)C2)nc2c(C(=O)NC(C)C(F)(F)F)cnn12` (centres unmarked) [III-180] are “** (Gcase activation in the range of 10% up to 20%)” and “+++ (Gcase activation greater than 60%)”.
On the same counts, the results for `Cc1cc(N2CCC(F)(F)CC2)nc2c(C(=O)NC(C)C(F)(F)F)cnn12` (centres unmarked) [III-181] are “* (less than 10% Gcase activation)” and “+++ (Gcase activation greater than 60%)”.
On to `Cc1cc(-c2cccc3c2OCO3)nc2c(C(=O)N[C@@H](C)C3CC3)cnn12` [III-182], for which the “Percent Gcase Activation, 0.1 μM Test Compound” value is on record as “*** (greater than 20% Gcase activation)” and the “Percent Gcase Activation, 1 μM Test Compound” value is given as “++ (Gcase activation in the range of 30% up to 60%)”.
For the molecule `Cc1cc(-c2cccc3c2OCO3)nc2c(C(=O)NC(C3CC3)C(F)(F)F)cnn12` (centres unmarked) [III-183], the “Percent Gcase Activation, 0.1 μM Test Compound” value is recorded as “*** (greater than 20% Gcase activation)” and the “Percent Gcase Activation, 1 μM Test Compound” value was “+++ (Gcase activation greater than 60%)”.
In the same order, the values of `Cc1cc(C)n2ncc(C(=O)NC(c3ccc(F)cc3)C(F)(F)F)c2n1` (centres unmarked) [III-184] are “*** (greater than 20% Gcase activation)” and “+++ (Gcase activation greater than 60%)”.
On the same counts, the results for `Cc1cc(-c2ccc(C#N)o2)nc2c(C(=O)NC(C3CC3)C(F)(F)F)cnn12` (centres unmarked) [III-185] are “*** (greater than 20% Gcase activation)” and “+++ (Gcase activation greater than 60%)”.
In the same order, the values of `Cc1cc(-c2ccco2)nc2c(C(=O)NC(C3CC3)C(F)(F)F)cnn12` (centres unmarked) [III-186] are “*** (greater than 20% Gcase activation)” and “+++ (Gcase activation greater than 60%)”.
Take `Cc1cc(-c2ccoc2)nc2c(C(=O)NC(C3CC3)C(F)(F)F)cnn12` (centres unmarked) [III-187]: the “Percent Gcase Activation, 0.1 μM Test Compound” value is “*** (greater than 20% Gcase activation)” and the “Percent Gcase Activation, 1 μM Test Compound” value is recorded as “+++ (Gcase activation greater than 60%)”.
`Cc1cc(-c2cscc2C#N)nc2c(C(=O)NC(C3CC3)C(F)(F)F)cnn12` (centres unmarked) [III-188]: the “Percent Gcase Activation, 0.1 μM Test Compound” value was “*** (greater than 20% Gcase activation)” and the “Percent Gcase Activation, 1 μM Test Compound” value was “+++ (Gcase activation greater than 60%)”.
Take `Cc1cc(-c2sccc2C#N)nc2c(C(=O)NC(C3CC3)C(F)(F)F)cnn12` (centres unmarked) [III-189]: the “Percent Gcase Activation, 0.1 μM Test Compound” value is given as “*** (greater than 20% Gcase activation)” and the “Percent Gcase Activation, 1 μM Test Compound” value is reported as “+++ (Gcase activation greater than 60%)”.
Turning to `Cc1cc(C)n2ncc(C(=O)N[C@H]3CC[C@H](OC(C)(C)C)CC3)c2n1` [III-190], the “Percent Gcase Activation, 0.1 μM Test Compound” value is reported as “* (less than 10% Gcase activation)” and the “Percent Gcase Activation, 1 μM Test Compound” value is on record as “+ (less than 30% Gcase activation)”.
Consider `Cc1cc(C)n2ncc(C(=O)N[C@H]3CC[C@H](OCC(C)C)CC3)c2n1` [III-191], for which the “Percent Gcase Activation, 0.1 μM Test Compound” value is “* (less than 10% Gcase activation)” and the “Percent Gcase Activation, 1 μM Test Compound” value is recorded as “+++ (Gcase activation greater than 60%)”.
In the same order, the values of `Cc1cc(-c2ccc3scnc3c2)nc2c(C(=O)N[C@@H](C)C3CC3)cnn12` [III-192] are “*** (greater than 20% Gcase activation)” and “+++ (Gcase activation greater than 60%)”.
Consider `Cc1cc(-c2ccc3scnc3c2)nc2c(C(=O)N[C@H](C)C3CC3)cnn12` [III-193], for which the “Percent Gcase Activation, 0.1 μM Test Compound” value is on record as “*** (greater than 20% Gcase activation)” and the “Percent Gcase Activation, 1 μM Test Compound” value is on record as “+++ (Gcase activation greater than 60%)”.
Turning to `COc1ccc(F)cc1-c1cc(C)n2ncc(C(=O)NC(C)C(F)(F)F)c2n1` (centres unmarked) [III-194], the “Percent Gcase Activation, 0.1 μM Test Compound” value was “*** (greater than 20% Gcase activation)” and the “Percent Gcase Activation, 1 μM Test Compound” value was “+++ (Gcase activation greater than 60%)”.
On the same counts, the results for `COc1ccc(F)cc1-c1cc(C)n2ncc(C(=O)N[C@H](C)C(F)(F)F)c2n1` [III-195] are “*** (greater than 20% Gcase activation)” and “+++ (Gcase activation greater than 60%)”.
On the same counts, the results for `COc1ccc(F)cc1-c1cc(C)n2ncc(C(=O)N[C@@H](C)C(F)(F)F)c2n1` [III-196] are “*** (greater than 20% Gcase activation)” and “+++ (Gcase activation greater than 60%)”.
Consider `Cc1cc(-c2ccns2)nc2c(C(=O)N[C@@H](C)C3CC3)cnn12` [III-197], for which the “Percent Gcase Activation, 0.1 μM Test Compound” value was “*** (greater than 20% Gcase activation)” and the “Percent Gcase Activation, 1 μM Test Compound” value is on record as “+++ (Gcase activation greater than 60%)”.
In the same order, the values of `Cc1cc(-c2ccns2)nc2c(C(=O)N[C@H](C)C3CC3)cnn12` [III-198] are “* (less than 10% Gcase activation)” and “+++ (Gcase activation greater than 60%)”.
On the same counts, the results for `Cc1cc(-c2cnccc2F)nc2c(C(=O)NC(C)C(F)(F)F)cnn12` (centres unmarked) [III-199] are “* (less than 10% Gcase activation)” and “++ (Gcase activation in the range of 30% up to 60%)”.
Turning to `Cc1cc(-c2cncc(Cl)c2)nc2c(C(=O)NC(C)C(F)(F)F)cnn12` (centres unmarked) [III-200], the “Percent Gcase Activation, 0.1 μM Test Compound” value is on record as “*** (greater than 20% Gcase activation)” and the “Percent Gcase Activation, 1 μM Test Compound” value is reported as “+++ (Gcase activation greater than 60%)”.
For the molecule `Cc1cc(-c2cncc(Cl)c2)nc2c(C(=O)N[C@H](C)C(F)(F)F)cnn12` [III-201], the “Percent Gcase Activation, 0.1 μM Test Compound” value was “*** (greater than 20% Gcase activation)” and the “Percent Gcase Activation, 1 μM Test Compound” value is listed as “+++ (Gcase activation greater than 60%)”.
In the same order, the values of `Cc1cc(-c2cncc(Cl)c2)nc2c(C(=O)N[C@@H](C)C(F)(F)F)cnn12` [III-202] are “*** (greater than 20% Gcase activation)” and “+++ (Gcase activation greater than 60%)”.
On to `Cc1cc(-c2ncccc2F)nc2c(C(=O)NC(C3CC3)C(F)(F)F)cnn12` (centres unmarked) [III-203], for which the “Percent Gcase Activation, 0.1 μM Test Compound” value was “*** (greater than 20% Gcase activation)” and the “Percent Gcase Activation, 1 μM Test Compound” value is “+++ (Gcase activation greater than 60%)”.
Turning to `Cc1cc(-c2ccc(F)cn2)nc2c(C(=O)NC(C3CC3)C(F)(F)F)cnn12` (centres unmarked) [III-204], the “Percent Gcase Activation, 0.1 μM Test Compound” value was “*** (greater than 20% Gcase activation)” and the “Percent Gcase Activation, 1 μM Test Compound” value is “+++ (Gcase activation greater than 60%)”.
Take `Cc1cc(-c2cc(F)ccn2)nc2c(C(=O)NC(C3CC3)C(F)(F)F)cnn12` (centres unmarked) [III-205]: the “Percent Gcase Activation, 0.1 μM Test Compound” value is on record as “*** (greater than 20% Gcase activation)” and the “Percent Gcase Activation, 1 μM Test Compound” value is given as “+++ (Gcase activation greater than 60%)”.

The values are drawn from patent US10934298B2, “Substituted pyrazolo[1,5-a]pyrimidines for the treatment of medical disorders” (BIAL—BioTech Investments, Inc., priority 2016, dated 2021).
